The test system of assay [1] is AMY3 (CTR + RAMP3). Particulars: receptor AMY3, CTR + RAMP3; ref [10], [11], [38]; cited from earlier work.
Assay [2] deals with AM1 (CLR + RAMP2). Particulars: receptor AM1, CLR + RAMP2; ref [10], [11], [38]; cited from earlier work.
For assay [3], the system named is CGRP (CLR + RAMP1). Particulars: receptor CGRP, ref [10], [11], [38]; cited from earlier work.
Assay [4] concerns SB2b cell line. Nature of the assay: cAMP accumulation, αCGRP and AM, SB2b. The class given is cell-based, human. Particulars: 30 min, 3 to 4 independent experiments in triplicate. Here is the method:
(§1) Primary patient high-grade glioma (HGG) cell lines, in vitro surrogates of glioblastoma, were developed by QIMR-Berghofer Medical Research Institute (Brisbane, Australia) and represent 3 distinct GBM subtypes: SB2b and PB1 (classical), JK2 (proneural) and WK1(mesenchymal), who supplied these directly for this study. GBM cell lines were cultured as adherent monolayers on matrigel (BD Biosciences)-coated flasks using StemPro NSC SFM serum free cell culture medium (Thermo Fisher Scientific) supplemented with 20 ng/ml EGF and 20 ng/ml FGFb, 1% D-glutamine and 1% of penicillin/ streptomycin (further referred as StemPro complete medium).
GBM cell lines were seeded at 38000 cells/well (SB2b) or 35,000 cells/well (PB1, JK2 and WK1) in 96-well matrigel-coated plates and incubated for 24 h at 37°C, 5% CO2 in humidified incubator in StemPro complete medium. Media was replaced with stimulation buffer (phenol red free F12 media, 0.1% BSA, 0.5 mM IBMX, pH 7.4). […] Cells were lysed (0.3% Tween 20, 5 mM Hepes, 0.1% BSA, pH 7.4) and 5 μl of cell lysate from each well was transferred to a corresponding well of 384-well optiplate. […] Data were analysed by three-parameter logistic curve and are presented as percentage of 10^− 5 M forskolin response.

The subject of assay [5] is CTR. Particulars: receptor CTR; ref [10], [11], [38]; cited from earlier work.
Assay [6] relates to AM2 (CLR + RAMP3). Particulars: receptor AM2, CLR + RAMP3; ref [10], [11], [38]; cited from earlier work.
The test system of assay [7] is AMY1 (CTR + RAMP1). Particulars: receptor AMY1, CTR + RAMP1; ref [10], [11], [38]; cited from earlier work.
Assay [8] relates to mouse thymic lymphoma models. Particulars: CTR expressed as an amylin receptor, ref [18], [19]; cited from earlier work. The source says:
(§2) Research on the role of CTR expression in cancer has been fragmentary and any role for CTR in cancer pathology seems to be entirely dependent on the cancer type. For instance, in human breast cancer model cell lines with high constitutive ERK (Extracellular Signal Regula ...

Assay [9] concerns PB1 cell line. Put plainly: cAMP accumulation, CTR agonists, PB1. The assay is classed as cell-based, human. Particulars: 30 min, 3 to 5 independent experiments in triplicate. Here is the method: as §1, with “medium). Cells were cultured in 5% CO2 / 95% humidified air at 37 °C.” for “medium).”
(§3) GBM cell lines were seeded at 38000 cells/well (SB2b) or 35,000 cells/well (PB1, JK2 and WK1) in 96-well matrigel-coated plates and incubated for 24 h at 37°C, 5% CO2 in humidified incubator in StemPro complete medium. Media was replaced with stimulation buffer (phenol red free F12 media, 0.1% BSA, 0.5 mM IBMX, pH 7.4). […] Cells were lysed (0.3% Tween 20, 5 mM Hepes, 0.1% BSA, pH 7.4) and 5 μl of cell lysate from each well was transferred to a corresponding well of 384-well optiplate. Intracellular cAMP levels in the wells were determined using Lance Ultra cAMP assay kit (Perkin Elmer) according to the manufacturer’s instructions and detected using an Envision multilabel 2103 reader. Raw RFU values were converted using a cAMP standard curve to give absolute cAMP concentrations. Data were analysed by three-parameter logistic curve and are presented as percentage of 10^− 5 M forskolin response.

In assay [10] the test system is JK2 cell line. Put plainly: cAMP accumulation, CTR agonists, JK2. The class given is cell-based, human. Particulars: 30 min, 3 to 5 independent experiments in triplicate. Here is the method: as §1, with “medium). Cells were cultured in 5% CO2 / 95% humidified air at 37 °C.” for “medium).”
as §3

The test system of assay [11] is WK1 cell line. Nature of the assay: Ca2+ mobilization, WK1. Particulars: Fluo4-AM, FlexStation, 37 °C, pH 7.4, peak RFU, ATP 10 μM, ionomycin 1 μM, representative experiment, 3 replicates. The assay is classed as cell-based, human.
Procedure: (§4) Primary patient high-grade glioma (HGG) cell lines, in vitro surrogates of glioblastoma, were developed by QIMR-Berghofer Medical Research Institute (Brisbane, Australia) and represent 3 distinct GBM subtypes: SB2b and PB1 (classical), JK2 (proneural) and WK1(mesenchymal) [37], who supplied these directly for this study. GBM cell lines were cultured as adherent monolayers on matrigel (BD Biosciences)-coated flasks using StemPro NSC SFM serum free cell culture medium (Thermo Fisher Scientific) supplemented with 20 ng/ml EGF and 20 ng/ml FGFb, 1% D-glutamine and 1% of penicillin/ streptomycin (further referred as StemPro complete medium).
(§5) GBM cell lines were seeded at 38000 cells/well (SB2b) or 35,000 cells/well (PB1 and WK1) in 96-well matrigel-coated plates and incubated for 24 h at 37 °C, 5% CO2 in humidified incubator in StemPro complete medium. […] Cells were incubated at 37°C for 60 min before ligand addition and detection of Ca^2+ mobilisation in a FlexStation 3 (Molecular Devices).
In assay [12] the test system is SB2b cell line. Nature of the assay: Ca2+ mobilization, SB2b. The assay is classed as cell-based, human. Particulars: Fluo4-AM, FlexStation, 37 °C, pH 7.4, peak RFU, ATP 10 μM, ionomycin 1 μM, representative experiment, 3 replicates.
Procedure: as §4, §5
For assay [13], the system named is WK1 cell line. Put plainly: cAMP accumulation, CTR agonists, WK1. The class given is cell-based, human. Particulars: 30 min, agonist 10^-12-10^-6 M, 3 to 5 independent experiments in triplicate. Here is the method:
as §1, with “medium). Cells were cultured in 5% CO2 / 95% humidified air at 37 °C.” for “medium).”
GBM cell lines were seeded at 38000 cells/well (SB2b) or 35,000 cells/well (PB1, JK2 and WK1) in 96-well matrigel-coated plates and incubated for 24 h at 37°C, 5% CO2 in humidified incubator in StemPro complete medium. Media was replaced with stimulation buffer (phenol red free F12 media, 0.1% BSA, 0.5 mM IBMX, pH 7.4). […] Intracellular cAMP levels in the wells were determined using Lance Ultra cAMP assay kit (Perkin Elmer) according to the manufacturer’s instructions and detected using an Envision multilabel 2103 reader. […] Data were analysed by three-parameter logistic curve and are presented as percentage of 10^− 5 M forskolin response.

For assay [14], the system named is PB1 cell line. Put plainly: Ca2+ mobilization, PB1. The assay is classed as cell-based, human. Particulars: Fluo4-AM, FlexStation, 37 °C, pH 7.4, peak RFU, ATP 10 μM, ionomycin 1 μM, representative experiment, 3 replicates.
Procedure: as §4, §5
For assay [15], the system named is human prostate cancer cell line PC3. Particulars: ref [14], [15]; cited from earlier work.
Text: as §2

Assay [16] deals with MDA-MB-231 xenograft tumours. Particulars: ref [13]; cited from earlier work.
Text: as §2

Ends that are not written are not given here.

Regarding `CC[C@H](C)[C@H](NC(=O)[C@H](CCC(N)=O)NC(=O)[C@H](Cc1c[nH]cn1)NC(=O)[C@H](C)NC(=O)[C@H](CC(C)C)NC(=O)[C@H](CCCCN)NC(=O)[C@H](CCC(N)=O)NC(=O)[C@@H](NC(=O)[C@@H](NC(=O)[C@@H]1CSSC[C@H](NC(=O)CNC(=O)[C@H](Cc2ccccc2)NC(=O)[C@H](CO)NC(=O)[C@H](CCCNC(=N)N)NC(=O)[C@H](CC(C)C)NC(=O)CNC(=O)[C@H](CCC(N)=O)NC(=O)[C@H](Cc2ccccc2)NC(=O)[C@H](CC(N)=O)NC(=O)[C@H](CC(N)=O)NC(=O)[C@H](CCSC)NC(=O)[C@H](CO)NC(=O)[C@H](CCC(N)=O)NC(=O)[C@H](CCCNC(=N)N)NC(=O)[C@@H](N)Cc2ccc(O)cc2)C(=O)N[C@@H](CCCNC(=N)N)C(=O)N[C@@H](Cc2ccccc2)C(=O)NCC(=O)N[C@@H]([C@@H](C)O)C(=O)N1)[C@@H](C)O)C(C)C)C(=O)N[C@@H](Cc1ccc(O)cc1)C(=O)N[C@@H](CCC(N)=O)C(=O)N[C@@H](Cc1ccccc1)C(=O)N[C@H](C(=O)N[C@@H](CC(=O)O)C(=O)N[C@@H](CCCCN)C(=O)N[C@@H](CC(=O)O)C(=O)N[C@@H](CCCCN)C(=O)N[C@@H](CC(=O)O)C(=O)N[C@@H](CC(N)=O)C(=O)N[C@H](C(=O)N[C@@H](C)C(=O)N1CCC[C@H]1C(=O)N[C@@H](CCCNC(=N)N)C(=O)N[C@@H](CO)C(=O)N[C@@H](CCCCN)C(=O)N[C@H](C(=O)N[C@@H](CO)C(=O)N1CCC[C@H]1C(=O)N[C@@H](CCC(N)=O)C(=O)NCC(=O)N[C@@H](Cc1ccc(O)cc1)C(N)=O)[C@@H](C)CC)C(C)C)[C@@H](C)O` [AM, Adrenomedullin], the “Peptides rank order of potency (human)” value in assay [1] is reported as “sCT ≥ AMY > αCGRP > intermedin ≥ hCT > AM”; in assay [2], “AM > intermedin > α-CGRP, AMY > sCT”; in assay [3], “αCGRP > AM ≥ intermedin > AMY ≥ sCT”; in assay [5], “sCT ≥ hCT > AMY, αCGRP > AM, intermedin”; in [6], “AM ≥ intermedin ≥ α-CGRP > AMY > SCT”; in assay [7], “sCT ≥ AMY ≥ αCGRP > intermedin ≥ hCT > AM”. For the same molecule, the “cAMP response to αCGRP, adrenomedullin (and weak amylin response)” value in [4] is “Weak responses”.
Turning to `CC(C)C[C@H](NC(=O)[C@H](CC(N)=O)NC(=O)[C@H](CC(N)=O)NC(=O)[C@H](CO)NC(=O)[C@H](CO)NC(=O)[C@H](CCCNC(=N)N)NC(=O)[C@@H](NC(=O)[C@H](CC(C)C)NC(=O)[C@H](Cc1ccccc1)NC(=O)[C@H](CC(N)=O)NC(=O)[C@H](C)NC(=O)[C@H](CC(C)C)NC(=O)[C@H](CCCNC(=N)N)NC(=O)[C@H](CCC(N)=O)NC(=O)[C@@H](NC(=O)[C@H](C)NC(=O)[C@@H]1CSSC[C@H](NC(=O)[C@@H](N)CCCCN)C(=O)N[C@@H](CC(N)=O)C(=O)N[C@@H]([C@@H](C)O)C(=O)N[C@@H](C)C(=O)N[C@@H]([C@@H](C)O)C(=O)N1)[C@@H](C)O)C(C)C)C(=O)NCC(=O)N1CCC[C@H]1C(=O)N[C@H](C(=O)N[C@@H](CC(C)C)C(=O)N1CCC[C@H]1C(=O)N1CCC[C@H]1C(=O)N[C@H](C(=O)N[C@@H](CC(N)=O)C(=O)N[C@H](C(=O)NCC(=O)N[C@@H](CO)C(=O)N[C@@H](CC(N)=O)C(=O)N[C@H](C(=O)N[C@@H](Cc1ccc(O)cc1)C(N)=O)[C@@H](C)O)C(C)C)[C@@H](C)O)C(C)C` [amylin, Amylin], in assay [8], the metabolic reprogramming result is “metabolic reprogramming (switch from glycolysis to oxidative phosphorylation)”. For the same molecule, the susceptibility to apoptosis result in [8] is given as “increased susceptibility to apoptosis”. Moreover, the cAMP response result in assay [9] (agonist 10^-12-10^-6 M), in assay [10] (agonist 10^-12-10^-6 M) and in assay [13] was “very weak response” in each case. Further, the “pEC50, cAMP accumulation” value in assay [9] (CTR agonists, 37 °C, S.E.M.) is listed as 6.1 ± 0.5; in assay [10] (CTR agonists, 37 °C, S.E.M.), 5.9 ± 0.5. Further, the “cAMP response to αCGRP, adrenomedullin (and weak amylin response)” value in assay [4] is on record as “Weak responses”. Also, the “intracellular Ca2+ mobilisation response” value in [11] is recorded as “unable to detect functional CTR response”; in assay [11] (listed as rAMY), “Absence of intracellular calcium mobilization response”; in [12] it was “unable to detect functional CTR response”; in assay [12] (listed as rAMY), “Absence of intracellular calcium mobilization response”; in [14], “unable to detect functional CTR response”; in assay [14] (listed as rAMY), “Absence of intracellular calcium mobilization response”.
On to Amylin, for which the “Peptides rank order of potency (human)” value in assay [1] is given as “sCT ≥ AMY > αCGRP > intermedin ≥ hCT > AM”; in assay [2] it was “AM > intermedin > α-CGRP, AMY > sCT”; in assay [3], “αCGRP > AM ≥ intermedin > AMY ≥ sCT”; in [5], “sCT ≥ hCT > AMY, αCGRP > AM, intermedin”; in assay [6] it was “AM ≥ intermedin ≥ α-CGRP > AMY > SCT”; in assay [7], “sCT ≥ AMY ≥ αCGRP > intermedin ≥ hCT > AM”.
Take “Calcitonin (peptide) (CGNLSTCMLGTYTQDFNKFHTFPQTAIGVGAP; ends and bridges not checked; cysteine pairing not given here; UniProt P01258 85-116, looked up) [CT]”: in [15], the apoptosis result is “inhibits apoptosis”; the “tumour growth and invasiveness” value is “stimulates tumour growth and invasiveness”. In addition, in assay [16], the “growth of xenograft tumours” value is listed as “inhibits the growth”.
